The subject of data set [1] is Salmonella Typhimurium TA-100. The data set is described as follows: Modified Maron-Ames test, strain TA-100. The note with it: for dilution at which a mutagenic response was observed: dilution in DMSO. How it is done:
[…] The assays were performed according to the modified methods of Maron and Ames (Maron D. R. and Ames, B. N. Mutation Research, 1980, Vol. 113, 173-215) using two strains of Salmonella Typhimurium TA-98 and TA-100, with and without metabolic activation of the substrate. The male rat microsomal homogenate S-9 was used to effect metabolic activation of the substrate. TA-98 and TA-100 were cultured in Oxoid Nutrient Broth No.2 at 37° C. for 16 hours using a gyratory shaker (200-250 rpm).
(§1) Compounds were assayed after the bacteria tested positive for the viability-related criteria above. Two mL top agar was placed in sterile culture tubes and kept at ˜40° C. in a water bath. Samples (100 μL) were placed in each tube (3 tubes per sample) and 100 μL of either strain TA-98 or TA-100 was added. When required, the S-9 homogenate (500 μL) was then added. The tubes were mixed and poured into minimal glucose agar plates. The plates were left at room temperature until the top agar solidified. Then, they were inverted and incubated at 37° C. for 48 hours. After incubation, revertant colonies were counted. Samples that presented greater than 2 times the number of revertant colonies were considered mutagenic. (See FIGS. 9(a) through (f)).
(The Ames test detects mutagens through reverse mutation in bacteria.)

In data set [2] the test system is Salmonella Typhimurium TA-98. The data set is described as follows: Modified Maron-Ames test, strain TA-98. To be noted: for cytotoxicity: strain TA-98, with microsomal enzyme S-9 activation, no effect on the background lawn; for mutagenicity (revertant colonies): strain TA-98, with or without metabolic activation S-9. How it is done: Serial dilutions (100 fold) were made with DMSO to obtain samples with dilution factors of 10^−3, 10^−5, and 10^−7. The assays were performed according to the modified methods of Maron and Ames (Maron D. R. and Ames, B. N. Mutation Research, 1980, Vol. 113, 173-215) using two strains of Salmonella Typhimurium TA-98 and TA-100, with and without metabolic activation of the substrate. The male rat microsomal homogenate S-9 was used to effect metabolic activation of the substrate. TA-98 and TA-100 were cultured in Oxoid Nutrient Broth No.2 at 37° C. for 16 hours using a gyratory shaker (200-250 rpm).
as §1

Entries after “also recorded” stand apart in the source; their conditions may differ.

With `CC(C)(c1ccc(OCC2CO2)cc1)c1ccc(OCC2CO2)cc1` (stereo not shown) [DGEBA, diglycidyl ether of bisphenol-A], the “dilution at which a mutagenic response was observed” value in data set [1] (strain TA-100, with S-9 activation) was “greater than 10^−3”. Further, the “dilution at which a mutagenic response was observed” value in data set [1] (strain TA-100, without S-9 activation) was “greater than 10^−5”. In data set [2], the cytotoxicity entry is recorded as “slightly cytotoxic” and the “mutagenicity (revertant colonies)” value was “no apparent mutagenicity”. Moreover, in data set [2] (tester strain TA-98, all concentrations), the “cytotoxicity and mutagenicity, overall conclusion” value is “neither cytotoxic nor mutagenic”.
Regarding epoxyallyl sucrose [EAS], the cytotoxicity result in data set [2] was “slightly cytotoxic”.
Same read-out and setting: then epoxycrotyl sucrose [ECS], with “slightly cytotoxic”.
epoxymethallyl sucrose [EMS]: the cytotoxicity entry is “borderline cytotoxicity” in data set [1] (Maron-Ames tests, about 10 mg/mL concentration in DMSO, strain not stated); “borderline cytotoxic” in data set [1] (dilution factors of 10^−1); “slightly cytotoxic” in data set [2]. The mutagenic response entry in data set [1] (strain TA-100, dilution factor 10^−1 in DMSO, with or without S-9 activation) is listed as “mutagenic response was observed”. Further, in data set [1] (strain TA-100, dilution factor 10^−2), the revertant colonies entry is “had not doubled”. Also, in data set [2], the “mutagenicity (revertant colonies)” value is given as “no apparent mutagenicity; also recorded: no mutagenic response”.

The values are drawn from patent publication US20040210047A1, “Methallyl sucroses and their epoxy derivatives” (priority 2003, published 2004).
